Assay [1] has as its target T1, ACSS2 (Homo sapiens, UniProt Q9NR19).
T1 construct: endogenous fatty acid synthesis activity in the human HCT-15 cancer cell line; endogenous in cells; host or cells: HCT-15
Nature of the assay: Cellular assay of 14C acetate incorporation into fatty acids (IC50 ACSS2 cellular lipids). Particulars: HCT-15 cells. The format is cell-based. The procedure: This protocol describes a cellular assay capable to quantify endogenous fatty acid synthesis activity in the human HCT-15 cancer cell line following the incorporation of extracellularly administered radiolabeled ^14C acetate with a scintillation proximity based read out on extracted fatty acids.
HCT-15 cells were grown in RPMI 1640 (Gibco) supplemented with 2 mM glutamine, 1 mM sodium pyruvate 10 mM HEPES and 10 % FCS (heat-inactivated) passaged every 2-3 days to remain a subconfluent, vital culture. A working cell bank was prepared with each aliquot containing 1x10^7 viable cells. After thawing, these cells are dilute immediately 1:20 in pre-warmed (37° C.) culture medium. Cells are collected by centrifugation at 200 x g for 5 min, and the supernatant is replaced by 30 mL of fresh culture medium per aliquot to obtain a cell suspension containing 350000 cells/ml. From this cell suspension 100 µL are dispersed into each well of a collagen coated 96 well plate, (black, clear bottom, PS, F-bottom, Greiner) and culture for 24 h (37° C., 5% CO2). After incubation the culture medium is removed and the wells are washed once with 100 µL PBS++ (supplemented with Mg^2+/ Ca^2+, Gibco) and 50 µL assay medium (RPMI 1640 + 10 mM HEPES) are added to each well. Compounds serial dilutions are prepared from 10 mM stock solutions in DMSO using a fixed dilution factor (usually 1:3). After preparation of the dilution series in DMSO, the individual dilutions are further diluted in the assay medium. This working dilution is prepared such, that the concentration is 7x of the final concentration in the assay. The maximal DMSO concentration in the final assay is 0.1%.
To each well 10 µL compound working dilution or DMSO blank are added and the cells are cultured for 2 h (37° C., 5% CO2). Then 10 µL AlamarBlue reagent (Invitrogen) containing 14 µCi/mL ^14C-acetate (Perkin Elmer) are added to each well (70 µl total volume) and cells are again cultured for 2 h. Cell viability is verified by measuring the AlamarBlue fluorescence (Tecan Safire, ex: 544 nm / em: 590 nm). After incubation the culture medium is removed and the wells are carefully washed once with cold 100 µL PBS++. For cell lysis and fatty acid recovery 50 µl 0.1 M NaOH and 0.1 % Triton-X100 are added per well. The plate is sealed with PlateLoc (clear peelable heat seal, Agilent) and incubate at 70° C. for 16-24 h. After cooling to room temperature, the plates are centrifuged for 1 min at 1000 rpm and the plate seals are removed. For acidification 150 µL 0.1 M HCl are added to each well, mixed and 150 µL of the mixture are transferred into a 96 well FlashPlate (Perkin Elmer). The plates are sealed with TopSeaI-a (Perkin Elmer). To allow for the fatty acid binding to the well surfaces the plates are incubate for 4 h at 70° C. After cooling to room temperature, the plates are centrifuged for 1 min at 1000 rpm and stored for 0.5-2 h at room temperature in the dark. Radioactivity from ^14C incorporation into fatty acids in the wells is measured as CPM count in a MicroBeta scintillation counter (Perkin Elmer).

In assay [2] the target is T1, ACSS2. Put plainly: Cellular assay of 14C acetate incorporation into histones (IC50 ACSS2 cellular histone). Particulars: HCT-15 cells. The class given is cell-based. In short, it runs like this:
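Human HCT-15 cells preincubated 1 h with compound (0.25% DMSO final), then pulsed 3 h with 14C-acetate. Histones were acid-extracted (0.2 M HCl, overnight, 4° C) after Triton lysis in sodium-butyrate buffer; incorporated 14C counted by liquid scintillation (CPM) to give IC50.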

Assay [3] deals with T2, human rec ACSS2 (Homo sapiens, UniProt Q9NR19).
T2 construct: myc (C); purchased Origene
T2 sequence (Q9NR19 whole entry): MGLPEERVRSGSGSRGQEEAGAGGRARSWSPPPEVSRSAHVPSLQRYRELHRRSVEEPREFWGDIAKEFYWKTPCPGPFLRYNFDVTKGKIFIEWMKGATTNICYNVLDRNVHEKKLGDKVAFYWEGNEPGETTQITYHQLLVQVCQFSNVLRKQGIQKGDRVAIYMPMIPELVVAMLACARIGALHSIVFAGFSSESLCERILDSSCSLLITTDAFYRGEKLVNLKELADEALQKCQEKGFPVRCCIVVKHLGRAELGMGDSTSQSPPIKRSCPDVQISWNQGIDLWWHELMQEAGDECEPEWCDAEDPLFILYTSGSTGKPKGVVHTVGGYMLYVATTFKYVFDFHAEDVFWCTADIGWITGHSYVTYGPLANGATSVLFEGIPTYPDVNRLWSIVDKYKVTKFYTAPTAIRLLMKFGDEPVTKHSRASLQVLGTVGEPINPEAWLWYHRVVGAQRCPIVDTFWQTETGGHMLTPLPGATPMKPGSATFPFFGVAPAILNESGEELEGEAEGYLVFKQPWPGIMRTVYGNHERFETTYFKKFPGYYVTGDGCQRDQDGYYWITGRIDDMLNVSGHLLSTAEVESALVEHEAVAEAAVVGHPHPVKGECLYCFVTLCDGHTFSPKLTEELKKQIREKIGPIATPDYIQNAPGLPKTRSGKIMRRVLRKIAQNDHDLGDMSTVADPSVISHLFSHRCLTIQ
Put plainly: Biochemical activity ACSS2 assay (AMP-Glo). To be noted: human recombinant ACSS2, AMP-Glo, 180 min at 37° C. Summed up:
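C-terminal myc-tagged human recombinant ACSS2 (1 nM) reacted with 100 µM ATP, 100 µM CoA and 500 µM acetate (final) in pH 7.5 Hepes buffer for 180 min at 37° C, compound in 10 concentrations from 30 µM. Released AMP detected by AMP-Glo luminescence. IC50 normalised to inhibitor-free reaction and 5 µM reference inhibitor.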

The source of these data is patent US20230271956A1, “AMIDE DERIVATIVES” (Merck Patent GmbH, priority 2020, published 2023).

Usually IC50 stands for the concentration that gives 50% inhibition.

T1 sequence (Q9NR19 whole entry): as above

As for `CCn1c(C(O)(c2ccccc2)c2ccccc2)nc2nc(Cl)c(C(=O)Nc3cnn(CCO)c3)cc21` [Compound 66, 5-chloro-1-ethyl-2-(hydroxydiphenylmethyl)-N-[1-(2-hydroxyethyl)-1H-pyrazol-4-yl]-1H-imidazo[4,5-b]pyridine-6-carboxamide], the IC50 in assay [1] is 1 to 10 nM; in assay [2], 10 to 100 nM; in assay [3] it was 100 to 10000 nM.

`CCn1cc(NC(=O)c2cc3c(nc2C)nc(C(O)(c2ccccc2F)c2ccccc2F)n3CC)cn1` [Compound 107, 2-[bis(2-fluorophenyl)(hydroxy)methyl]-1-ethyl-N-(1-ethyl-1H-pyrazol-4-yl)-5-methyl-1H-imidazo[4,5-b]pyridine-6-carboxamide]: the values for the IC50 in assay [1], in assay [2] and in assay [3] were 10 to 100 nM, 0.01 to 1 nM and 1 to 10 nM, respectively.

Consider `CCn1cnc(NC(=O)c2cc3c(nc2OC)nc(C(O)(c2ccccc2)c2ccc(C)s2)n3CC)n1` (racemic) [Compound 51, 1-ethyl-N-(1-ethyl-1H-1,2,4-triazol-3-yl)-2-[hydroxy(5-methylthiophen-2-yl)phenylmethyl]-5-methoxy-1H-imidazo[4,5-b]pyridine-6-carboxamide], for which the IC50 in assay [1] lay within 1 to 10 nM; in assay [2], 0.01 to 1 nM; in assay [3], 1 to 10 nM.

Take `CCn1cc(NC(=O)c2cc3c(nc2OC)nc(C(O)(c2ccccc2F)c2ccccc2F)n3CC)cn1` [Compound 104, 2-[bis(2-fluorophenyl)(hydroxy)methyl]-1-ethyl-N-(1-ethyl-1H-pyrazol-4-yl)-5-methoxy-1H-imidazo[4,5-b]pyridine-6-carboxamide]: the half-inhibitory concentration (IC50) in assay [1], in assay [2] and in assay [3] was 1 to 10 nM throughout.

In the case of `CCc1nnc(NC(=O)c2cc3c(nc2OC)nc(C(O)(c2ccccc2)c2ccccc2)n3CC)o1` [Compound 64, 1-ethyl-N-(5-ethyl-1,30,4-oxadiazol-2-yl)-2-(hydroxydiphenylmethyl)-5-methoxy-1H-imidazo[4,5-b]pyridine-6-carboxamide], the IC50 in assay [1] lay in the range of 0.01 to 1 nM; in assay [2], 10 to 100 nM; in assay [3], 0.01 to 1 nM.

On to `CCc1cnc(NC(=O)c2cc3c(nc2OC)nc(C(O)(c2ccccc2)c2ccccc2)n3CC)o1` [Compound 60, 1-ethyl-N-(5-ethyl-1,3-oxazol-2-yl)-2-(hydroxydiphenylmethyl)-5-methoxy-1H-imidazo[4,5-b]pyridine-6-carboxamide], for which the IC50 in assay [1] lay in the range of 1 to 10 nM; in assay [2] it was 0.01 to 1 nM; in assay [3] it was 0.01 to 1 nM.

In the case of `CCn1cnc(NC(=O)c2cc3c(nc2C)nc(C(O)(c2ccccc2)c2ccccc2)n3CC)n1` [Compound 108, 1-ethyl-N-(1-ethyl-1H-1,2,4-triazol-3-yl)-2-(hydroxydiphenylmethyl)-5-methyl-1H-imidazo[4,5-b]pyridine-6-carboxamide], the half-inhibitory concentration (IC50) in assay [1] was 10 to 100 nM; in assay [2] it was 1 to 10 nM; in assay [3], 1 to 10 nM.

Turning to `CCn1cnc(NC(=O)c2cnc3nc(C(O)(c4ccccc4)c4ccccc4)n(CC)c3c2)n1` [Compound 111, 1-ethyl-N-(1-ethyl-1H-1,2,4-triazol-3-yl)-2-(hydroxydiphenylmethyl)-1H-imidazo[4,5-b]pyridine-6-carboxamide], the IC50 in assay [1] is 100 to 10000 nM; in assay [2], 100 to 10000 nM; in assay [3] it was 1 to 10 nM.

For the compound `CCc1c(C(O)(c2ccccc2F)c2ccccc2F)nn2cc(Cl)c(C(=O)Nc3cnn(CC)c3)cc12` [Compound 12, 2-[Bis-(2-fluoro-phenyl)-hydroxy-methyl]-6-chloro-3-ethyl-pyrazolo[1,5-a]pyridine-5-carboxylic acid (1-ethyl-1H-pyrazol-4-yl)-amide], the IC50 in assay [1], in assay [2] and in assay [3] was 1 to 10 nM in each case.

For `CCc1coc(NC(=O)c2cc3c(nc2OC)nc(C(O)(c2ccccc2)c2ccccc2)n3CC)n1` [Compound 59, 1-ethyl-N-(4-ethyl-1,3-oxazol-2-yl)-2-(hydroxydiphenylmethyl)-5-methoxy-1H-imidazo[4,5-b]pyridine-6-carboxamide], the half-maximal inhibitory concentration (IC50) lay in the range of 0.01 to 1 nM in assay [1], 0.01 to 1 nM in assay [2] and 1 to 10 nM in assay [3].

Take `CCn1ccc(NC(=O)c2cc3c(nc2Cl)nc(C(O)(c2ccccc2)c2ccccc2)n3CC)n1` [Compound 83, 5-chloro-1-ethyl-N-(1-ethyl-1H-pyrazol-3-yl)-2-(hydroxydiphenylmethyl)-1H-imidazo[4,5-b]pyridine-6-carboxamide]: the 50% inhibitory concentration (IC50) was 1 to 10 nM in assay [1], 0.01 to 1 nM in assay [2] and 1 to 10 nM in assay [3].

For the compound `CCn1c(C(O)(c2ccccc2)c2ccccc2)nc2nc(OC)c(C(=O)Nc3ncn(CCO)n3)cc21` [Compound 73, 1-ethyl-2-(hydroxydiphenylmethyl)-N-[1-(2-hydroxyethyl)-1H-1,2,4-triazol-3-yl]-5-methoxy-1H-imidazo[4,5-b]pyridine-6-carboxamide], the figures for the half-maximal inhibitory concentration (IC50) in assay [1], in assay [2] and in assay [3] were 10 to 100 nM, 10 to 100 nM and 1 to 10 nM, respectively.

Take `CCn1cnc(NC(=O)c2cc3c(nc2OC)nc(C(O)(c2ccccc2)c2ccccn2)n3CC)n1` (racemic) [Compound 69, 1-ethyl-N-(1-ethyl-1H-1,2,4-triazol-3-yl)-2-[hydroxy(phenyl)(pyridin-2-yl)methyl]-5-methoxy-1H-imidazo[4,5-b]pyridine-6-carboxamide]: the 50% inhibitory concentration (IC50) is 1 to 10 nM in assay [1], 0.01 to 1 nM in assay [2] and 1 to 10 nM in assay [3].

Take `CCn1cnc(NC(=O)c2cc3c(nc2OC)nc(C(O)(c2cccs2)c2cccs2)n3CC)n1` [Compound 55, 1-ethyl-N-(1-ethyl-1H-1,2,4-triazol-3-yl)-2-[hydroxybis(thiophen-2-yl)methyl]-5-methoxy-1H-imidazo[4,5-b]pyridine-6-carboxamide]: the 50% inhibitory concentration (IC50) in assay [1] lay in the range of 0.01 to 1 nM; in assay [2], 0.01 to 1 nM; in assay [3] it was 1 to 10 nM.

With `CCn1cc(NC(=O)c2cc3c(nc2F)nc(C(O)(c2ccccc2)c2ccccc2)n3CC)cn1` [Compound 92, 1-ethyl-N-(1-ethyl-1H-pyrazol-4-yl)-5-fluoro-2-(hydroxydiphenylmethyl)-1H-imidazo[4,5-b]pyridine-6-carboxamide], the figures for the IC50 in assay [1], in assay [2] and in assay [3] were 1 to 10 nM, 1 to 10 nM and 10 to 100 nM, respectively.

As for `CCn1cnc(NC(=O)c2cc3c(nc2OC)nc(C(O)(c2ccccc2)c2cccs2)n3CC)n1` (racemic) [Compound 47, 1-ethyl-N-(1-ethyl-1H-1,2,4-triazol-3-yl)-2-[hydroxy(phenyl)(thiophen-2-yl)methyl]-5-methoxy-1H-imidazo[4,5-b]pyridine-6-carboxamide], the half-maximal inhibitory concentration (IC50) was 10 to 100 nM in assay [1], 0.01 to 1 nM in assay [2] and 1 to 10 nM in assay [3].

Turning to `CCn1c(C(O)(c2ccccc2)c2ccccn2)nc2nc(OC)c(C(=O)Nc3ncn(CCO)n3)cc21` (racemic) [Compound 61, 1-ethyl-2-[hydroxy(phenyl)(pyridin-2-yl)methyl]-N-[1-(2-hydroxyethyl)-1H-1,2,4-triazol-3-yl]-5-methoxy-1H-imidazo[4,5-b]pyridine-6-carboxamide], the 50% inhibitory concentration (IC50) was in the range of 0.01 to 1 nM in assay [1], 10 to 100 nM in assay [2] and 10 to 100 nM in assay [3].

As for `CCn1c(C(O)(c2ccccc2)c2ccccc2)nc2nc(OC)c(C(=O)Nc3ncn(CCN)n3)cc21` [Compound 46, N-[1-(2-aminoethyl)-1H-1,2,4-triazol-3-yl]-1-ethyl-2-(hydroxydiphenylmethyl)-5-methoxy-1H-imidazo[4,5-b]pyridine-6-carboxamide], the half-inhibitory concentration (IC50) in assay [1] was in the range of 100 to 10000 nM; in assay [2], 100 to 10000 nM; in assay [3], 10 to 100 nM.
